Experimental data published in patent US8501722B2, “Methods and compositions for treating bacterial infection” (priority 2009, dated 2013).
“And” between values parts separate entries of the source, which are not always exact repeats. Equal entries are not always repeated. Where two headings read alike, the source gives them in different places.

Assays:
[1] = test system: streptokinase (SK)
Procedure: SK− Ecoli and SKCtr1's dose response relationship with these compounds were then examined.
The effects of 10 hit compounds out of the 23 identified were further tested by dose response assays. […] These compounds were tested for inhibition of ska expression by measuring SK activity in supernatants of GAS exposed to the test compound or control vehicle alone (DMSO). SK(+)GAS were cultured with hit compounds at a dose range of 10 nM to 100 μM at 37° C. for 16-20 hours. Supernatants of SK(+)GAS cultures were measured for SK activity using chromogenic substrate 2403 (Diapharma group Inc., West Chester, Ohio), according to the manufacturer's instruction and simultaneously monitored for nonspecific effects on GAS growth by measuring OD600 nm.
The positive compounds identified in dose response assays are subjected to SK assay to identify compounds inhibiting SK expression in SK(+)GAS. Briefly, SK(+)GAS is grown at the presence of hit compounds at a dose range determined by dose response assays within which SK(−) GAS growth is inhibited less than 10% while SKKanGAS growth is inhibited more than 50% under 20 μg/ml kanamycin.

[2] = test system: SK(+)GAS; experiment: GAS growth by OD600 nm of culture; assay type: cell-based, Group A Streptococcus; conditions: Streptococcus; for activity at 0.1 µg/mL: read-out: GAS Growth (% control), compound conc. 0.1 μg/ml; for activity at 0.3 µg/mL: read-out: GAS Growth (% control), compound conc. 0.3 μg/ml; for activity at 2.5 µg/mL: read-out: GAS Growth (% control), compound conc. 2.5 μg/ml; for activity at 5 µg/mL: read-out: GAS Growth (% control), compound conc. 5 μg/ml; for activity at 10 µg/mL: read-out: GAS Growth (% control), compound conc. 10 μg/ml; for activity at 20 µg/mL: read-out: GAS Growth (% control), compound conc. 20 μg/ml; for activity at 40 µg/mL: read-out: GAS Growth (% control), compound conc. 40 μg/ml; for activity at 70 µg/mL: read-out: GAS Growth (% control), compound conc. 70 μg/ml
[3] = test system: SK(+)GAS (UMAA2616); experiment: Survival of human plasminogen transgenic (Tg+) mice infected with GAS; assay type: in vivo; conditions: UMAA2616 infection; 575096 5 μg per day, 1S-22207 30 μg per day, intraperitoneally daily for 5 days, starting one day after infection
Procedure: To examine the in vivo efficacy of compounds CCGC, CCGE, and CCGF, Tg+ mice were first infected with 6*10^5 CFU SK(+)GAS, then injected with 5 μg of test compound per mouse intraperitoneally daily for 5 days, starting one day after infection. […] In some embodiments, small compound are delivered continuously through an ALZET® Osmotic Pump (DURECT Corporation, Cupertino, Calif.).
Tg+ mice are then used to test the efficacy of compounds in attenuating the virulence of GAS infection. 20 Tg+ mice are infected with 10^5 CFU of SK(+)GAS then injected with the estimated experimental doses of the compounds two hours later. Survival is monitored for 9 days, while a control group of Tg+ mice will be infected with SK(+)GAS injected with DMSO. The comparison of mortalities between the two groups is analyzed as described above in the toxicity test. Treating mice with compound post-infection helps avoid potential side-effects of toxic or growth inhibition of compound on SK(+)GAS at the time of infection. As a result, the effect of compound on mice survival is a more authentic reflection of the efficacy of compound on inhibiting GAS virulence. Possible scenarios include:
This example describes the in vivo efficacy of compound 575096. Human plasminogen transgenic mice (Tg+) were first infected with 10^5″^6 CFUUMAA2616, then injected with 5-30 lag of test compound per mouse intraperitoneally daily for 5 days, starting one day after infection.

## C=CCn1c(SCC#N)nc2c(c1=O)C(C)(C)Cc1ccccc1-2 [1S-22207]
[1]; compound conc. 0.1 μg/ml
  SK Expression (% control): 103 % control and 108 % control and 97 % control and 95 % control
[1]; compound conc. 0.3 μg/ml
  SK Expression (% control): 103 % control and 104 % control and 95 % control and 108 % control
[1]; compound conc. 1.0 μg/ml
  SK Expression (% control): 102 % control and 108 % control and 99 % control and 77 % control
[1]; compound conc. 3 μg/ml
  SK Expression (% control): 62 % control and 46 % control and 83 % control and 47 % control
[1]; compound conc. 5 μg/ml
  SK Expression (% control): 64 % control and 49 % control and 80 % control
[1]; compound conc. 10 μg/ml
  SK Expression (% control): 39 % control and 38 % control and 29 % control and 33 % control and 34 % control
[1]; compound conc. 20 μg/ml
  SK Expression (% control): 31 % control and 27 % control
[1]; compound conc. 40 μg/ml
  SK Expression (% control): 22 % control and 25 % control and 40 % control
[2]
  activity at 0.1 µg/mL: 96%
  activity at 0.3 µg/mL: 98%
  activity at 2.5 µg/mL: 100%
  activity at 5 µg/mL: 98%
  activity at 10 µg/mL: 96%
  activity at 20 µg/mL: 99%
  activity at 40 µg/mL: 113%
  activity at 70 µg/mL: 126%
[3]
  survival of Tg+ mice compared to DMSO control group: significant improvement in survival

## C=CCn1c(SCCCC)nc2c(c1=O)C1(CCCCC1)Cc1ccccc1-2 [compound 575096]
[1]; compound conc. 0.1 μg/ml
  SK Expression (% control): 77 % control and 83 % control and 95 % control
[1]; compound conc. 0.3 μg/ml
  SK Expression (% control): 108 % control and 95 % control and 127 % control
[1]; compound conc. 1.0 μg/ml
  SK Expression (% control): 65 % control and 69 % control and 84 % control
[1]; compound conc. 3 μg/ml
  SK Expression (% control): 61 % control and 62 % control and 69 % control
[1]; compound conc. 5 μg/ml
  SK Expression (% control): 50 % control
[1]; compound conc. 40 μg/ml
  SK Expression (% control): 68 % control and 51 % control and 69 % control and 76 % control
[1]; compound conc. 50 μg/ml
  SK Expression (% control): 65 % control and 66 % control and 83 % control
[1]; compound conc. 70 μg/ml
  SK Expression (% control): 40 % control and 61 % control
[2]
  activity at 0.1 µg/mL: 97%
  activity at 0.3 µg/mL: 102%
  activity at 5 µg/mL: 101%
  activity at 10 µg/mL: 102%
  activity at 20 µg/mL: 84%
[2]; read-out: GAS Growth (% control), compound conc. 1 μg/ml
  activity at 1 µg/mL: 102%
[2]; read-out: GAS Growth (% control), compound conc. 3 μg/ml
  activity at 3 µg/mL: 100%
[3]
  survival of Tg+ mice compared to DMSO control group: significant improvement in survival

## C=CCn1c(SCCOC)nc2c(c1=O)C(C)(C)Cc1ccccc1-2 [CCG-102624, 3-Allyl-2-(2-methoxyethylthio)-5,5-dimethyl-5,6-dihydrobenzo[h]quinazolin-4(3H)-one]
[1]; compound conc. 0.1 μg/ml
  SK Expression (% control): 90 % control
[1]; compound conc. 0.3 μg/ml
  SK Expression (% control): 97 % control
[1]; compound conc. 1.0 μg/ml
  SK Expression (% control): 79 % control
[1]; compound conc. 3 μg/ml
  SK Expression (% control): 35 % control
[1]; compound conc. 5 μg/ml
  SK Expression (% control): 30 % control
[1]; compound conc. 10 μg/ml
  SK Expression (% control): 33 % control and 29 % control
[1]; compound conc. 20 μg/ml
  SK Expression (% control): 30 % control
[1]; compound conc. 30 μg/ml
  SK Expression (% control): 26 % control
[1]; compound conc. 40 μg/ml
  SK Expression (% control): 23 % control
[1]; compound conc. 60 μg/ml
  SK Expression (% control): 28 % control
[2]
  activity at 0.1 µg/mL: 100%
  activity at 0.3 µg/mL: 98%
  activity at 2.5 µg/mL: 101%
  activity at 5 µg/mL: 93%
  activity at 10 µg/mL: 94%
  activity at 20 µg/mL: 93%
  activity at 40 µg/mL: 87%
  activity at 70 µg/mL: 113%

## C=CCn1c(OCC)nc2c(c1=O)C1(CCCCC1)Cc1ccccc1-2 [CCG-102622, 3-Allyl-2-ethoxy-3H-spiro[benzo[h]quinazoline-5,1′-cyclohexan]-4(6H)-one]
[1]; compound conc. 5 μg/ml
  SK Expression (% control): 43 % control
[1]; compound conc. 10 μg/ml
  SK Expression (% control): 41 % control
[1]; compound conc. 20 μg/ml
  SK Expression (% control): 38 % control
[1]; compound conc. 40 μg/ml
  SK Expression (% control): 23 % control
[2]
  activity at 5 µg/mL: 99%
  activity at 10 µg/mL: 100%
  activity at 20 µg/mL: 103%
  activity at 40 µg/mL: 113%

## C=CCn1c(SCc2ccccn2)nc2c(c1=O)C(C)(C)Cc1ccccc1-2 [CCG-203039, 3-Allyl-5,5-dimethyl-2-(pyridin-2-ylmethylthio)-5,6-dihydrobenzo[h]quinazolin-4(3H)-one]
[1]; compound conc. 0.1 μg/ml
  SK Expression (% control): 94 % control
[1]; compound conc. 0.3 μg/ml
  SK Expression (% control): 95 % control
[1]; compound conc. 1.0 μg/ml
  SK Expression (% control): 93 % control
[1]; compound conc. 3 μg/ml
  SK Expression (% control): 58 % control
[1]; compound conc. 10 μg/ml
  SK Expression (% control): 49 % control
[1]; compound conc. 30 μg/ml
  SK Expression (% control): 35 % control
[1]; compound conc. 60 μg/ml
  SK Expression (% control): 27 % control
[2]
  activity at 0.1 µg/mL: 100%
  activity at 0.3 µg/mL: 100%
  activity at 2.5 µg/mL: 104%
  activity at 5 µg/mL: 100%
  activity at 20 µg/mL: 104%
  activity at 40 µg/mL: 115%
  activity at 70 µg/mL: 135%

## C=CCn1c(SCC(=O)OCC)nc2c(c1=O)C(C)(C)Cc1ccccc1-2 [1S-30398]
[1]; compound conc. 5 μg/ml
  SK Expression (% control): 42 % control
[1]; compound conc. 10 μg/ml
  SK Expression (% control): 36 % control
[1]; compound conc. 20 μg/ml
  SK Expression (% control): 38 % control
[1]; compound conc. 40 μg/ml
  SK Expression (% control): 39 % control
[2]
  activity at 5 µg/mL: 98%
  activity at 10 µg/mL: 98%
  activity at 20 µg/mL: 99%
  activity at 40 µg/mL: 111%

## C=CCn1c(SCc2cccc(OC)c2)nc2c(c1=O)C1(CCCCC1)Cc1ccccc1-2 [CCG-102485, 3-allyl-2-(3-methoxybenzylthio)-3H-spiro[benzo[h]quinazoline-5,1′-cyclohexan]-4(6H)-one]
[1]; compound conc. 5 μg/ml
  SK Expression (% control): 81 % control
[1]; compound conc. 40 μg/ml
  SK Expression (% control): 91 % control
[2]
  activity at 5 µg/mL: 102%
  activity at 40 µg/mL: 104%

## C=CCn1c(SCCN(C)C)nc2c(c1=O)C1(CCCCC1)Cc1ccccc1-2 [CCG-102495, 3-allyl-2-(2-(dimethylamino)ethylthio)-3H-spiro[benzo[h]quinazoline-5,1′-cyclohexan]-4(6H)-one]
[1]; compound conc. 20 μg/ml
  SK Expression (% control): 17 % control
[2]
  activity at 20 µg/mL: 18%

## C=CCn1c(SCc2ccccc2)nc2c(c1=O)C1(CCCCC1)Cc1ccccc1-2 [compound 575097]
[1]; compound conc. 10 μg/ml
  SK Expression (% control): 92 % control and 88 % control
[1]; compound conc. 20 μg/ml
  SK Expression (% control): 82 % control and 79 % control
[1]; compound conc. 30 μg/ml
  SK Expression (% control): 79 % control and 77 % control
[1]; compound conc. 40 μg/ml
  SK Expression (% control): 72 % control and 74 % control
[1]; compound conc. 50 μg/ml
  SK Expression (% control): 70 % control and 67 % control
[1]; compound conc. 60 μg/ml
  SK Expression (% control): 63 % control
[1]; compound conc. 70 μg/ml
  SK Expression (% control): 65 % control
[2]
  activity at 10 µg/mL: 89%
  activity at 20 µg/mL: 88%
  activity at 40 µg/mL: 86%
[2]; read-out: GAS Growth (% control), compound conc. 30 μg/ml
  activity at 30 µg/mL: 88%
[2]; read-out: GAS Growth (% control), compound conc. 50 μg/ml
  activity at 50 µg/mL: 86%
